One experiment concerns the target T1, BTK (Homo sapiens, UniProt Q06187).
T1 construct: endogenous in cells; host or cells: Mino cells
Put plainly: BTK degradation activity test in Mino cells. Format: cell-based. The following applies: 16 h incubation, Western blot or Elisa. An outline of the steps:
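DC50 derived by curve fitting of BTK degradation rates versus untreated control across compound concentrations. Mino cells were exposed for 16 h; BTK levels in lysates, normalised via BCA protein, measured by Western blot or ELISA.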

In the next experiment the test system is Mino cells. Briefly: Inhibitory activity on Mino cell proliferation (MTS). Particulars: Homo sapiens, 168 h incubation. Format: cell-based. The method, then:
The anti-tumor efficacy of the compounds was tested by measuring their inhibitory effects on OCI-LY10 and Mino cell proliferation. OCI-LY10 and Mino cells were cultured in RPMI-1640 medium containing 10% fetal calf serum. OCI-LY10 and Mino cells were digested, inoculated in a 96-well plate at a cell concentration of 10000 cells/well, and incubated overnight at 37° C., 5% CO2. Compounds of different concentrations (1000 nM, 4-fold dilution, 8 points) were added to the 96-well plate and incubated for 72 h (LY10) or 168 h (Mino) at 37° C. and 5% CO2, and then 20 uL of MTS was added to each well. After incubation for 2 h, 25 μl of 10% SDS was added to each well to terminate the reaction. The absorbance at 490 nm and 650 nm were measured with a microplate reader. IC50 was calculated using GraphPad Prism 5.0.

The structures appear in SMILES notation. A value given as a limit tells only on which side of the number the result lay.

T1 sequence (Q06187 whole entry): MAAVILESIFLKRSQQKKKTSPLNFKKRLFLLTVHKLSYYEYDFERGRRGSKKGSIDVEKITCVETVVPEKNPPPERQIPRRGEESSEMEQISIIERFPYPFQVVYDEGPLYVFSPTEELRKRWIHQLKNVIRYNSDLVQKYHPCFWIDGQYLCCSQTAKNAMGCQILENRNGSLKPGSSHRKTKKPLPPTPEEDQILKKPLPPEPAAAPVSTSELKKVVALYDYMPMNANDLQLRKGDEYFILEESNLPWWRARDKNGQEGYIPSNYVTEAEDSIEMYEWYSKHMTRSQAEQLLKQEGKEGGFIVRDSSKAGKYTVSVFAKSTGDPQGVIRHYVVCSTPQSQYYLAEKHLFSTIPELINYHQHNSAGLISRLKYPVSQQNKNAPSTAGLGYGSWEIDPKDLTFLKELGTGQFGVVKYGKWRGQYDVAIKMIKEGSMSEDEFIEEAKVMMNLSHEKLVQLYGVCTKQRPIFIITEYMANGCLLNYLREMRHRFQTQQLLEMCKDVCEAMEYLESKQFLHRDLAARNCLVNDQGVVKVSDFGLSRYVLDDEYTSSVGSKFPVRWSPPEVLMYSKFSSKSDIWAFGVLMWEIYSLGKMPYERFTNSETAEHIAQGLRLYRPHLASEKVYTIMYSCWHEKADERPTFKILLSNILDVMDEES

For `CN1CCN([C@@H]2CCCN(c3nnc(C(N)=O)c(Nc4ccc(N5CCN(C[C@@H]6CCN(c7ccc(N8CCC(=O)NC8=O)cc7)C6)CC5)c(F)c4)n3)C2)C1=O` [Compound 152, 5-((4-(4-(((S)-1-(4-(2,4-dioxotetrahydropyrimidin-1(2H)-yl)phenyl)pyrrolidin-3-yl)methyl)piperazin-1-yl)-3-fluorophenyl)amino)-3-((R)-3-(3-methyl-2-oxoimidazolin-1-yl)piperidin-1-yl)-1,2,4-triazin-6-carboxamide], on BTK, the DC50 is less than 1 nM. Also, in the experiment on Mino cells, inhibition was half-maximal at 2.8 nM (IC50). Compound `CN1CCN([C@@H]2CCCN(c3nnc(C(N)=O)c(Nc4ccc(N5CCN(CC6CCN(c7ccc(C(=O)NC8CCC(=O)NC8=O)c(F)c7F)CC6)CC5)c(F)c4)n3)C2)C1=O` (stereo partly drawn) [Compound 182, 5-((4-(4-((1-(4-((2,6-dioxopiperidin-3-yl)carbamoyl)-2,3-difluorophenyl)piperidin-4-yl)methyl)piperazin-1-yl)-3-fluorophenyl)amino)-3-((R)-3-(3-methyl-2-oxoimidazolidin-1-yl)piperidin-1-yl)-1,2,4-triazin-6-carboxamide] showed a DC50 at BTK of less than 1 nM. Moreover, inhibition with Mino cells was half-maximal at 3.19 nM (IC50). The corresponding values for `CN1CCN([C@@H]2CCCN(c3nnc(C(N)=O)c(Nc4ccc(N5CCN(CC6CCN(c7ccc(C(=O)NC8CCC(=O)NC8=O)c8c7OCCO8)CC6)CC5)c(F)c4)n3)C2)C1=O` (stereo partly drawn) [Compound 183, 5-((4-(4-((1-(8-((2,6-dioxopiperidin-3-yl)carbamoyl)-2,3-dihydrobenzo[b][1,4]dioxan-5-yl)piperidin-4-yl)methyl)piperazin-1-yl)-3-fluorophenyl)amino)-3-((R)-3-(3-methyl-2-oxoimidazolidin-1-yl)piperidin-1-yl)-1,2,4-triazin-6-carboxamide] are less than 1 nM and 4.85 nM.

Regarding `CN1CCN([C@@H]2CCCN(c3nnc(C(N)=O)c(Nc4ccc(N5CCN(CC6CCN(c7ccc8c(C9CCC(=O)NC9=O)noc8c7)CC6)CC5)c(F)c4)n3)C2)C1=O` (stereo partly drawn) [Compound 243, 5-((4-(4-((1-(3-(2,6-dioxopiperidin-3-yl)benzo[d]isoxazol-6-yl)piperidin-4-yl)methyl)piperazin-1-yl)-3-fluorophenyl)amino)-3-((R)-3-(3-methyl-2-oxoimidazolidin-1-yl)piperidin-1-yl)-1,2,4-triazin-6-carboxamide], the 50% degradation concentration (DC50) on BTK is less than 1 nM.

With `CN1CCN([C@@H]2CCCN(c3nnc(C(N)=O)c(Nc4ccc(N5CCN(CC6CCN(c7ccn8c(C9CCC(=O)NC9=O)cnc8c7)CC6)CC5)c(F)c4)n3)C2)C1=O` (stereo partly drawn) [Compound 244, 5-((4-(4-((1-(3-(2,6-dioxopiperidin-3-yl)imidazo[1,2-a]pyridin-7-yl)piperidin-4-yl)methyl)piperazin-1-yl)-3-fluorophenyl)amino)-3-((R)-3-(3-methyl-2-oxoimidazolidin-1-yl)piperidin-1-yl)-1,2,4-triazin-6-carboxamide], on BTK, the 50% degradation concentration (DC50) was less than 1 nM. Still for that read-out and setting: the result for `CN1CCN([C@@H]2CCCN(c3nnc(C(N)=O)c(Nc4ccc(N5CCN(CC6CCN(c7ccn8c(N9CCC(=O)NC9=O)cnc8c7)CC6)CC5)c(F)c4)n3)C2)C1=O` [Compound 245] reads less than 1 nM. The same measure, in the same setting: the result for `CN1CCN([C@@H]2CCCN(c3nnc(C(N)=O)c(Nc4ccc(N5CCN(CC#Cc6ccn7c(N8CCC(=O)NC8=O)cnc7c6)CC5)c(F)c4)n3)C2)C1=O` [Compound 246, (R)-5-((4-(4-(3-(3-(2,4-dioxotetrahydropyrimidin-1(2H)-yl)imidazo[1,2-a]pyridin-7-yl)propan-2-yn-1-yl)piperazin-1-yl)-3-fluorophenyl)amino)-3-(3-(3-methyl-2-oxoimidazolidin-1-yl)piperidin-1-yl)-1,2,4-triazin-6-carboxamide] reads less than 1 nM; that for `CN1CCN([C@@H]2CCCN(c3nnc(C(N)=O)c(Nc4ccc(N5CCN(CC6CCN(c7ccc8c9c(cccc79)C(=O)N8C7CCC(=O)NC7=O)CC6)CC5)c(F)c4)n3)C2)C1=O` (stereo partly drawn) [Compound 247, 5-((4-(4-((1-(1-(2,6-dioxopiperidin-3-yl)-2-oxo-1,2-dihydrobenzo[cd]indol-6-yl)piperidin-4-yl)methyl)piperazin-1-yl)-3-fluorophenyl)amino)-3-((R)-3-(3-methyl-2-oxoimidazolidin-1-yl)piperidin-1-yl)-1,2,4-triazin-6-carboxamide], less than 1 nM. On the same count and under the same terms, with `CN1CCN([C@@H]2CCCN(c3nnc(C(N)=O)c(Nc4ccc(N5CCN(CC#Cc6ccc7c8c(cccc68)C(=O)N7C6CCC(=O)NC6=O)CC5)c(F)c4)n3)C2)C1=O` (stereo partly drawn) [Compound 248, 5-((4-(4-(3-(1-(2,6-dioxopiperidin-3-yl)-2-oxo-1,2-dihydrobenzo[cd]indol-6-yl)propan-2-yn-1-yl)piperazin-1-yl)-3-fluorophenyl)amino)-3-((R)-3-(3-methyl-2-oxoimidazolidin-1-yl)piperidin-1-yl)-1,2,4-triazin-6-carboxamide] the figure was less than 1 nM; with `CN1CCN([C@@H]2CCCN(c3nnc(C(N)=O)c(Nc4ccc(N5CCN(CC6CCN(c7cccc8c(C(=O)NC9CCC(=O)NC9=O)cccc78)CC6)CC5)c(F)c4)n3)C2)C1=O` (stereo partly drawn) [Compound 249, 5-((4-(4-((1-(5-((2,6-dioxopiperidin-3-yl)carbamoyl)naphthalen-1-yl)piperidin-4-yl)methyl)piperazin-1-yl)-3-fluorophenyl)amino)-3-((R)-3-(3-methyl-2-oxoimidazolidin-1-yl)piperidin-1-yl)-1,2,4-triazin-6-carboxamide], less than 1 nM; with `CN1CCN([C@@H]2CCCN(c3nnc(C(N)=O)c(Nc4ccc(N5CCN(CC6CCN(c7ccnc8c(C(=O)NC9CCC(=O)NC9=O)cccc78)CC6)CC5)c(F)c4)n3)C2)C1=O` (stereo partly drawn) [Compound 250, 4-(4-((4-(4-((6-carbamoyl-3-((R)-3-(3-methyl-2-oxoimidazolidin-1-yl)piperidin-1-yl)-1,2,4-triazin-5-yl)amino)-2-fluorophenyl)piperazin-1-yl)methyl)piperidin-1-yl)-N-(2,6-dioxopiperidin-3-yl)quinolin-8-carboxamide], less than 1 nM. `CN1CCN([C@@H]2CCCN(c3nnc(C(N)=O)c(Nc4ccc(N5CCN(CC6CCN(c7ccc(NC8CCC(=O)NC8=O)cc7F)CC6)CC5)c(F)c4)n3)C2)C1=O` (some centres unmarked) [Compound 251] came in with a 50% degradation concentration (DC50) at BTK of less than 1 nM. Same read-out and setting: the result for `CN1CCN([C@@H]2CCCN(c3nnc(C(N)=O)c(Nc4ccc(N5CCN(CC6CCN(c7ccc(NC8CCC(=O)NC8=O)cc7C(F)(F)F)CC6)CC5)c(F)c4)n3)C2)C1=O` (some centres unmarked) [Compound 252] reads less than 1 nM; that for `CN1CCN([C@@H]2CCCN(c3nnc(C(N)=O)c(Nc4ccc(N5CCN(CC6CCN(c7ccc(NC8CCC(=O)NC8=O)cc7)CC6)CC5)c(F)c4)n3)C2)C1=O` (stereo partly drawn) [Compound 253, 5-((4-(4-((1-(4-((2,6-dioxopiperidin-3-yl)amino)phenyl)piperidin-4-yl)methyl)piperazin-1-yl)-3-fluorophenyl)amino)-3-((R)-3-(3-methyl-2-oxoimidazolidin-1-yl)piperidin-1-yl)-1,2,4-triazin-6-carboxamide], less than 1 nM.

For the origin of these results see US20240360146A1, “BRUTON'S TYROSINE KINASE AND MUTANT DEGRADER, COMPOSITION AND APPLICATION THEREOF” (HANGZHOU HEALZEN THERAPEUTICS CO., LTD., priority 2021, published 2024).
